Measured values: ChEMBL document CHEMBL4828747, “Structure-Activity Relationships of Withanolides as Antiproliferative Agents for Multiple Myeloma: Comparison of Activity in 2D Models and a 3D Coculture Model” (J Nat Prod, 2021)

Key:
RPMI-8226 [1] = experiment: Antiproliferative activity against human RPMI 8226 cells assessed as reduction in cell viability incubated for 72 hrs by XTT assay; format: functional, cell-based; details: RPMI-8226, 72 h
RPMI-8226 [2] = experiment: Antiproliferative activity against human RPMI-8226 cells cultured as 3D-spheroids assessed as reduction in cell viability after 48 hrs by Celltiter-Glo assay; format: functional, cell-based; details: RPMI-8226, 48 h
[3] = Antiproliferative activity against human MM1.R cells assessed as reduction in cell viability incubated for 72 hrs by XTT assay; format: functional, cell-based; details: MM.1R
MM1.S = experiment: Antiproliferative activity against human MM1.S cells assessed as reduction in cell viability incubated for 72 hrs by XTT assay; format: functional, cell-based
[4] = Stability in human RPMI 8226 cells medium measured upto 72 hrs by HPLC analysis; format: ADME, cell-based; details: rpmi-8226, 72 h

SMILES | IC50 (RPMI-8226 [1]) [nM] | IC50 (RPMI-8226 [2]) [nM] | IC50 [3] [nM] | IC50 (MM1.S) [nM] | Stability [4]
CC(=O)OCC1=C(C)C[C@H]([C@@H](C)[C@H]2CC[C@H]3[C@@H]4C[C@H]5O[C@]56[C@@H](O)C=CC(=O)[C@]6(C)[C@H]4CC[C@]23C)OC1=O | 212 | 1510 | 107 | 114 | –
CC(=O)O[C@H]1C=CC(=O)[C@]2(C)[C@H]3CC[C@]4(C)[C@@H]([C@H](C)[C@H]5CC(C)=C(CO)C(=O)O5)CC[C@H]4[C@@H]3C[C@H]3O[C@]132 | 203 | 1390 | 129 | 97 | –
CC(=O)OCC1=C(C)C[C@H]([C@@H](C)[C@H]2CC[C@H]3[C@@H]4C[C@H]5O[C@]56C(=O)C=CC(=O)[C@]6(C)[C@H]4CC[C@]23C)OC1=O | 777 | – | – | – | –
CC1=C(C)C(=O)O[C@@H]([C@](C)(O)[C@H]2CC[C@H]3[C@@H]4C[C@H]5O[C@]56C(=O)C=CC(=O)[C@]6(C)[C@H]4CC[C@]23C)C1 | 276 | > 40000 | 858 | 750 | –
CC1=C(CO)C(=O)O[C@@H]([C@@H](C)[C@H]2CC[C@H]3[C@@H]4C[C@H](I)[C@]5(O)[C@@H](O)C=CC(=O)[C@]5(C)[C@H]4CC[C@]23C)C1 | 889 | – | – | – | –
C[C@H]1C[C@H]([C@](C)(O)[C@H]2[C@@H](O)C[C@H]3[C@@H]4C[C@H]5O[C@]56[C@@H](O)C=CC(=O)[C@]6(C)[C@H]4CC[C@]23C)OC(=O)[C@@H]1C | 273 | 3230 | 425 | 623 | –
CC1=C(CO)C(=O)O[C@@H]([C@@H](C)[C@H]2CC[C@H]3[C@@H]4C[C@H]5O[C@]56[C@@H](O)[C@@H](OS(=O)(=O)O)CC(=O)[C@]6(C)[C@H]4CC[C@]23C)C1 | 218 | 8520 | 129 | 115 | –
CC(=O)OCC1=C(C)C[C@H]([C@@H](C)[C@H]2CC[C@H]3[C@@H]4CC=C5C(=O)C=CC(=O)[C@]5(C)[C@H]4CC[C@]23C)OC1=O | 458 | 9930 | 236 | 246 | –
CC(=O)O[C@H]1C=CC(=O)[C@]2(C)[C@H]3CC[C@]4(C)[C@@H]([C@@](C)(O)[C@H]5CC(C)=C(C)C(=O)O5)CC[C@H]4[C@@H]3C[C@H]3O[C@]132 | 252 | 820 | 350 | 206 | –
CC1=C(C)C(=O)O[C@@H]([C@](C)(O)[C@H]2CC[C@H]3[C@@H]4C[C@H]5O[C@]56C(O)C=CC(=O)[C@]6(C)[C@H]4CC[C@]23C)C1 (some centres not stated) | 297 | 1570 | 372 | 441 | –
CC1=C(CO)C(=O)O[C@@H]([C@@H](C)[C@H]2CC[C@H]3[C@@H]4C[C@H]5O[C@]56[C@@H](O)[C@@H](N5CCCCC5)CC(=O)[C@]6(C)[C@H]4CC[C@]23C)C1 | 484 | 1870 | 80 | 55 | –
CC(=O)OCC1=C(C)C[C@H]([C@@H](C)[C@H]2CC[C@H]3[C@@H]4CC=C5C(=O)C=C[C@@H](OC(C)=O)[C@]5(C)[C@H]4CC[C@]23C)OC1=O | 942 | – | – | – | –
CC1=C(C)C(=O)O[C@@H]([C@](C)(O)[C@H]2CC[C@H]3[C@@H]4C[C@H]5O[C@]56CC=CC(=O)[C@]6(C)[C@H]4CC[C@]23C)C1 | 744 | – | – | – | –
CC1C(=O)O[C@@H]([C@](C)(O)C2=CC[C@@]3(O)[C@@H]4C[C@H]5O[C@]56[C@@H](O)C=CC(=O)[C@]6(C)[C@H]4CC[C@]23C)C[C@@H]1C (some centres not stated) | 122 | 2290 | 209 | 338 | –
CC1=C(C)C(=O)O[C@@H]([C@](C)(O)[C@H]2CC[C@H]3[C@@H]4CC=C5C(=O)C=CC(=O)[C@]5(C)[C@H]4CC[C@]23C)C1 | 780 | – | – | – | –
C[C@H]1C[C@H]([C@](C)(O)[C@@]2(O)CC[C@H]3[C@@H]4C[C@H]5O[C@]56[C@@H](O)C=CC(=O)[C@]6(C)[C@H]4CC[C@@]32C)OC(=O)[C@@H]1C | 506 | > 40000 | 1090 | 1820 | –

SMILES | IC50 (RPMI-8226 [1]) [nM] | IC50 (RPMI-8226 [2]) [nM] | IC50 [3] [nM] | IC50 (MM1.S) [nM] | Stability [4]
CC1=C(C)C(=O)O[C@@H]([C@](C)(O)[C@H]2CC[C@H]3[C@@H]4C[C@H](I)[C@]5(O)C(=O)C=CC(=O)[C@]5(C)[C@H]4CC[C@]23C)C1 | 950 | – | – | – | –
CC(=O)OCC1=C(C)C[C@H]([C@@H](C)[C@H]2CC[C@H]3[C@@H]4CC=C5C(O)C=CC(=O)[C@]5(C)[C@H]4CC[C@]23C)OC1=O (some centres not stated) | 770 | – | – | – | –
CC(=O)O[C@@H]1C=CC(=O)[C@]2(C)[C@H]3CC[C@]4(C)[C@@H]([C@@](C)(O)[C@H]5CC(C)=C(C)C(=O)O5)CC[C@H]4[C@@H]3C[C@H]3O[C@]132 | 301 | 1640 | 522 | 601 | –
CC1=C(C)C(=O)O[C@@H]([C@](C)(O)[C@H]2CC[C@H]3[C@@H]4C[C@H](I)[C@]5(O)[C@@H](O)C=CC(=O)[C@]5(C)[C@H]4CC[C@]23C)C1 | 545 | – | – | – | –
CC(=O)OCC1=C(C)C[C@H]([C@@H](C)[C@H]2CC[C@H]3[C@@H]4C[C@H]5O[C@]56[C@@H](O)[C@@H](OC(C)=O)CC(=O)[C@]6(C)[C@H]4CC[C@]23C)OC1=O | 252 | > 40000 | 374 | 229 | –
C[C@H]1C(=O)O[C@@H]([C@](C)(O)[C@H]2CC[C@H]3[C@@H]4C[C@H]5O[C@]56[C@@H](O)C=CC(=O)[C@]6(C)[C@H]4CC[C@]23C)C[C@@]1(C)O | 451 | 12300 | 997 | 1290 | –
CC1=C(C)C(=O)O[C@@H]([C@](C)(O)[C@H]2[C@@H](O)C[C@H]3[C@@H]4C[C@H](I)[C@]5(O)[C@@H](O)C=CC(=O)[C@]5(C)[C@H]4CC[C@]23C)C1 | 609 | – | – | – | –
CC(=O)O[C@H]1C=CC(=O)[C@]2(C)[C@H]3CC[C@@]4(C)[C@H]([C@@H]3C[C@H]3O[C@]132)[C@H](OC(C)=O)C[C@@H]4[C@@](C)(O)[C@H]1CC(C)=C(C)C(=O)O1 | 217 | 3420 | 322 | 370 | –
CC1=C(CO)C(=O)O[C@@H]([C@@H](C)[C@H]2CC[C@H]3[C@@H]4C[C@H]5O[C@]56[C@@H](O)[C@@H](n5ccnc5)CC(=O)[C@]6(C)[C@H]4CC[C@]23C)C1 | 270 | 2620 | 75 | 60 | –
C[C@@H]1[C@@H](C)C(=O)OC12C[C@](C)(O)C1[C@H](C[C@H]3[C@@H]4C[C@H]5O[C@]56[C@@H](O)C=CC(=O)[C@]6(C)[C@H]4CC[C@]13C)O2 (some centres not stated) | 239 | 4650 | 366 | 559 | –
CC1=C(CO[Si](C)(C)C(C)(C)C)C(=O)O[C@@H]([C@@H](C)[C@H]2CC[C@H]3[C@@H]4C[C@H]5O[C@]56[C@@H](O[Si](C)(C)C)C=CC(=O)[C@]6(C)[C@H]4CC[C@]23C)C1 | – | – | – | – | Stable
CC1=C(C)C(=O)O[C@@H]([C@](C)(O)[C@H]2CC[C@H]3[C@@H]4CC=C5[C@H](O)C=CC(=O)[C@]5(C)[C@H]4CC[C@]23C)C1 | 768 | – | – | – | –
C[C@H]1[C@H]([C@@H](O)[C@](C)(O)[C@H]2[C@@H](O)C[C@H]3[C@@H]4C[C@H]5O[C@]56[C@@H](O)C=CC(=O)[C@]6(C)[C@H]4CC[C@]23C)OC(=O)[C@@H]1C | 601 | – | – | – | –
CC(C)C[C@H](NC(=O)[C@H](Cc1ccccc1)NC(=O)c1cnccn1)B(O)O [BORTEZOMIB] | 4.7 | 6.4 | 2.4 | 2.5 | –
CC1=C(CO)C(=O)O[C@@H]([C@@H](C)[C@H]2CC[C@H]3[C@@H]4C[C@H]5O[C@]56[C@@H](O)C=CC(=O)[C@]6(C)[C@H]4CC[C@]23C)C1 [WITHAFERIN A] | 258 | 1600 | 263 | 53 | –
CC1=C(C)C(=O)O[C@@H]([C@](C)(O)[C@H]2CC[C@H]3[C@@H]4C[C@H]5O[C@]56[C@@H](O)C=CC(=O)[C@]6(C)[C@H]4CC[C@]23C)C1 [WITHANOLIDE D] | 76 | 980 | 106 | 107 | –
